Assay results as given in paper PMC10644327, “A randomized, double‐blind phase 1b study evaluating the safety, tolerability, pharmacokinetics and pharmacodynamics of the NLRP3 inhibitor selnoflast in patients with moderate to severe active ulcerative colitis” (Clinical and Translational Medicine, 2023).
Converted amounts (≈) assume the structure as drawn. Like-named read-outs stand apart in the source and are kept apart here.

Columns and labels:
[1] = cited from earlier work; for Tolerability: healthy subjects, single doses 20-600 mg and multiple doses up to 450 mg QD for 7 days, ref unpublished results, study IZD334-001
[2] = cited from earlier work
[3] = test system: AIM2; parameters: method as in unpublished results; conditions: ref unpublished results; cited from earlier work
[4] = test system: calprotectin; experiment: Stool calprotectin in UC patients; format: in vivo, human; conditions: Day 7, mean (± SD), selnoflast arm; results called uninterpretable (8/19 baseline samples not per protocol)
Protocol: (§1) Tissue biopsies from the sigmoid colon were obtained before start of treatment (up to Day −3) and at the end of treatment (Day 7). For operational reasons, biopsies were taken 2−4.5 h post‐dose on Day 7. Stool samples were obtained at screening, before start of treatment, throughout the study, and at the 14‐day follow‐up visit. Levels of calprotectin were determined in stool samples. Sigmoid colon tissue was processed for RNA and DNA extraction as well as for single‐cell analysis, subsequent transcriptomic analysis, and identification of PD biomarkers. Sigmoid colon tissue samples were also processed for histology (hematoxylin and eosin staining, immunohistochemistry, fluorescence in situ hybridization) in order to characterize the cell types present (i.e., neutrophils and inflammatory monocytes). Histological analysis was performed on sigmoid colon tissue samples (from baseline and Day 7) using the disease‐specific histological indices Geboes score[23] and Nancy index.[24] Caspase‐1 (pro and active form) was assessed using a validated WES‐assay (manuscript in preparation).

[5] = parameters: method as in Investigator Brochure; conditions: ref Investigator Brochure, cited from earlier work
[6] = parameters: method as in Investigator Brochure; conditions: ref Investigator Brochure, cited from earlier work; remark: listed apart in the source
[7] = test system: IL‐18; experiment: Plasma IL‐18 (SIMOA) in UC patients; format: in vivo, human; conditions: 450 mg QD, 7 days
Protocol: Blood samples were drawn pre‐dose and at various timepoints and placed in TruCulture whole blood collection and culture tubes that were pre‐filled with lipopolysaccharide (LPS) (final working concentration of 100 ng/mL LPS after addition of 1 mL of blood to the LPS‐containing Truculture tubes). Following 24 h incubation, TruCulture supernatants were collected, stored, and levels of secreted IL‐1β were subsequently measured in order to understand how these responded to NLRP3 inhibition by selnoflast. The levels of IL‐1β were also quantified in plasma K2EDTA samples using the same SIMOA IL‐1β Assay Kit (Quanterix). The quantitative range of the method was 0.196 to 490 pg/mL for plasma and 4.01 to 1470 pg/mL in Truculture supernatants. Plasma samples were also assessed for IL‐18, using a commercial SIMOA IL‐18 Assay Kit (Quanterix; the quantitative range for plasma was 0.0200–45.0 pg/mL).

[8] = test system: IL‐1β; experiment: IL‐1β IC90 calculated from in vitro studies; format: cell-based; conditions: estimated
[9] = test system: IL‐1β release in activated human monocyte‐derived macrophages; parameters: method as in unpublished results; conditions: in vitro, ref unpublished results; cited from earlier work
[10] = test system: IL‐1 gene signature (CXCL1, CXCL2, CXCL3, CXCL5, CXCL6, CCL2, IL6, TNFAIP6); experiment: IL‐1 gene signature in sigmoid colon tissue by qPCR; format: in vivo, human; conditions: mean [± SD], selnoflast arm, median log2FC of 8 genes
Protocol: A predefined IL‐1 gene signature comprising eight genes (i.e., CXCL1, CXCL2, CXCL3, CXCL5, CXCL6, CCL2, IL6, TNFAIP6) relevant in the context of IBD was assessed in RNA extracted from the sigmoid colon tissue. The signature had been determined by combining gene expression data that met the following criteria: (1) overlapping expression profiles (upregulation by IL‐1β stimulation) in multiple cell types,[25] (2) differential expression in relevant cell types across published and proprietary single‐cell RNA‐sequencing (scRNA‐seq) datasets involving IBD patients and controls[26] and (3) co‐expression with the IL1R1 receptor and differential colonic gene expression between UC patients and healthy individuals. The 8‐gene panel was then assessed by quantitative PCR (qPCR) before and after treatment (baseline and Day 7), normalized to a set of housekeeping genes (B2M, GusB, HPRT1, MRLP19) and log2 fold changes (log2FC) from baseline were reported per gene as well as across the eight genes (median log2FC = gene signature).

[11] = test system: sigmoid colon tissue; experiment: Histology of sigmoid colon biopsies (Geboes score, Nancy index, neutrophils); format: in vivo, human
Protocol: as §1

[12] = test system: Breast Cancer Resistance Protein (BCRP); parameters: method as in Investigator Brochure; conditions: in vitro studies; ref Investigator Brochure; cited from earlier work
[13] = test system: P-glycoprotein (P-gP); parameters: method as in Investigator Brochure; conditions: in vitro studies; ref Investigator Brochure; cited from earlier work

In the case of `CCN1CCC(S(=O)(=O)NC(=O)Nc2c3c(cc4c2CCC4)CCC3)CC1` [Selnoflast, selnoflast], the “Bacterial, viral, fungal, and other opportunistic infections” value (“Bacterial, viral, fungal” below) ([1]; HVs in the Phase I clinical study, ref Investigator Brochure) is given as “No evidence”, the “Healthy volunteers with mild transaminase increase” value ([1]; MAD part, volunteers who received RO7486967, no clear dose dependency, not clinically significant, ref Study IZD334-001) is given as 4 out of 18 and the Tolerability [1] is given as “well tolerated”. For the same compound, the Tolerability ([1]; listed as RO7486967) was “safe and well tolerated”, the “Dose dependence of systemic exposure” value ([2]; healthy subjects, 20 to 600 mg, ref unpublished results, IZD334‐001) was “approximately dose‐proportional” and the “Median Tmax” value ([2]; healthy subjects, single administration, 20 to 600 mg, fasted, ref unpublished results, IZD334‐001) was 30 to 360 min. The “Steady‐state achieved” value ([2]; healthy subjects, ref unpublished results, IZD334‐001) was “Day 2”, the “Change in exposure on repeat dosing” value ([2]; healthy volunteers, repeat dosing for 7 days, ref study IZD334-001) was “no indication of a change” and the half-life ([2]; healthy volunteers, ref study IZD334-001) was “approximately 7 hours”. The “Inhibitory activity on AIM2 inflammasome” value [3] was “no inhibitory activity”, the “Stool calprotectin change from baseline” value [4] was “+4146.6 (± 12321.12) μg/g” and the Signs of hepatotoxicity ([5]; 26-week GLP study, rat) was “no signs of hepatotoxicity”. For the same compound, the “Bacterial, viral, fungal” value ([5]; rats, nonclinical toxicology studies) was “No evidence”, the Signs of hepatotoxicity ([6]; 39-week GLP study, monkey) was “no signs of hepatotoxicity” and the “Bacterial, viral, fungal” value ([6]; monkeys, nonclinical toxicology studies) was “No evidence”. The “Change in plasma IL‐18 levels upon treatment” value [7] was “no significant changes”, the “IL‐1β IC90 (tissue)” value [8] was 1.94 µg/g and the IC90 ([8]; read-out: IL‐1β IC90 (plasma)) was 2 µg/mL (≈ 5.11 µM). For the same compound, the “Inhibition of IL‐1β release” value [9] was “potent inhibitor”, the “IL‐1 gene signature, log2FC from baseline to Day 7” value [10] was −1.14 [± 1.8] log2FC and the “Geboes score and Nancy index, difference between study arms” value ([11]; baseline and Day 7) was “No notable differences”. The “Neutrophils in sigmoid colon tissue, change from baseline” value ([11]; mean (± SD), active treatment arm, Day 7) was −13.23 (± 140.76) cells/mm^2, the “Patients with marked reduction from baseline in neutrophils in sigmoid colon tissue” value ([11]; selnoflast‐treated patients, Day 7) was “Three out of the 13” and the BCRP substrate status [12] was “potential substrate”. The P-gp substrate status [13] was “potential substrate”.
